Columns and labels:
Assay type in all cases: cell-based, human
[1] = test system: OE-19 esophageal adenocarcinoma cell line; test: DIMSCAN cytotoxicity, fenretinide + L-threo-sphinganines 3:1 (Example B19)
Experimental: (§1) Cytotoxicity Assay—Once again, cytotoxicity is determined using the DIMSCAN assay system (R. Proffitt et al., Cytometry 24, 204-213 (1996); T. Frgala et al., Mol Cancer Ther. 6:886-97, 2007). The system employs digital imaging microscopy to quantify viable cells, which selectively accumulate fluorescein diacetate to become brightly fluorescent. The system is capable of measuring cytotoxicity over a 4-5 log dynamic range by quenching the residual fluorescence of dead and dying cells with eosin Y and quantifying the total fluorescence of viable cells using digital thresholding. Measured fluorescence is directly proportionate to the number of viable cells. A comparison of the total fluorescence of a drug-treated cell population to the fluorescence of a similar number of untreated cells yields a survival fraction. In brief, 2000 to 10,000 cells/well (depending on size and growth rates) are replicate plated into 60 wells of a 96-well tissue culture plate in 0.1 mL of whole medium and allowed to attach overnight. Drug(s) are then added in 0.05 mL of whole medium to the final concentrations indicated. Drugs (fenretinide, and various chain length L-threo-sphinganines) were tested both as single agents and in a 3:1 ratio of fenretinide:sphinganine. C18-L-threo-sphinganine, or “safingol,” was also tested and results shown for reference. There are 12 wells treated per drug concentration. Twelve wells receive drug vehicle-only to the appropriate final concentration and serve as controls for the plate. Cells are incubated for 96 hours at 37° C. in ambient air with 5% CO2. Fluorescein diacetate is then added to each well in 0.05 mL media to a final concentration of 8 microgram/mL. Cells are incubated for a further 15 minutes at 37° C. and 0.03 mL of 0.5% eosin Y is added to each well. Total fluorescence of viable cells is then measured by digital imaging microscopy. Results were graphed as the ratio of the fluoresecence of drug-treated wells to non-drug treated control wells (i.e., Survival Fraction). All tests were performed at least twice. Representative results are shown.
(§2) The Combination Index (CI) is a term to describe mathematical modeling of the pharmacologic effects on cytotoxicity (cell death) of two drugs in combination based. Cytotoxic “synergy” is defined as a cell death affect which is greater than would be expected from a simple product of the single agent cytotoxicities alone (i.e. an “additive” effect). By Chou-Talalay analysis, a CI<0.9 on a Fraction Affected (“Fa”, i.e. fraction of cells killed) indicates synergy, with smaller numbers indicating greater synergy; a CI of 0.9-1.1 signifies an additive or near-additive effect; and a CI>1.1 means the drug combination is antagonistic.
(§3) Fenretinide and L-threo-sphinganines tested in human esophageal adenocarcinoma (esophagus cancer) cell lines, OE-19 and OE-33.

[2] = test system: OE-33 esophageal adenocarcinoma cell line; test: as above
Experimental: as §1, §2, §3

[3] = test system: CHLA-90 pediatric neuroblastoma cell line; test: DIMSCAN cytotoxicity, fenretinide + L-threo-sphinganines 3:1 (Example B21)
Experimental: as §1, §2
Fenretinide and L-threo-sphinganines tested in human pediatric neuroblastoma (a nerve-related, solid tumor cancer) cell line, CHLA-90.

[4] = test system: MDA-MB-231 breast adenocarcinoma cell line; test: DIMSCAN cytotoxicity, fenretinide + L-threo-sphinganines 3:1 (Example B14); conditions: MDA-MB-231, 20% O2, 96 h
Experimental: as §1, §2
Fenretinide and L-threo-sphinganines tested in human breast adenocarcinoma (breast cancer) cell lines, MCF-7 and MDA-MB-231.

[5] = 4-HPR 1.5 μM + L-threo-sphinganine 0.5 μM
[6] = 4-HPR 3 μM + L-threo-sphinganine 1 μM
[7] = 4-HPR 6 μM + L-threo-sphinganine 2 μM
[8] = 4-HPR 9 μM + L-threo-sphinganine 3 μM
[9] = 4-HPR 12 μM + L-threo-sphinganine 4 μM

Structure (SMILES) | CI [1, 5] | Fa [1, 5] | CI [1, 6] | Fa [1, 6] | CI [1, 7] | Fa [1, 7] | CI [1, 8] | Fa [1, 8] | CI [2, 5] | Fa [2, 5] | CI [2, 6] | Fa [2, 6] | CI (Combination Index) [4, 5] | Fa (fraction affected) [4, 5] | CI (Combination Index) [4, 6] | Fa (fraction affected) [4, 6] | CI (Combination Index) [4, 7] | Fa (fraction affected) [4, 7] | CI (Combination Index) [4, 8] | Fa (fraction affected) [4, 8] | other results
CCCCCCCCCCCCCC[C@H](O)[C@@H](N)CO [C17, (2S,3S)-2-amino-1,3-heptadecanediol] | 0.3 | 0.314 | 0.3 | 0.462 | 0.2 | 0.689 | 0.2 | 0.743 | 1.5 | 0.376 | 1.1 | 0.767 | 1.3 | 0.127 | 0.9 | 0.265 | 0.8 | 0.610 | 0.7 | 0.948 | CI [2, 7]: 0.8; Fa [2, 7]: 0.945; CI [2, 8]: 0.4; Fa [2, 8]: 0.991; CI [3, 6]: 0.4; Fa [3, 6]: 0.994; CI [3, 7]: 0.4; Fa [3, 7]: 0.999; CI [3, 8]: 0.6; Fa [3, 8]: 0.9997; CI [3, 9]: 0.3; Fa [3, 9]: 1
CCCCCCCCCCCCCCC[C@H](O)[C@@H](N)CO [C18, (2S,3S)-2-amino-1,3-octadecanediol, reference compound] | 0.7 | 0.281 | 0.4 | 0.464 | 0.2 | 0.709 | 0.2 | 0.799 |  |  |  |  | 1.8 | 0.088 | 1.8 | 0.207 | 1.3 | 0.597 | 0.7 | 0.922 | CI [3, 6]: 0.5; Fa [3, 6]: 0.996; CI [3, 7]: 0.3; Fa [3, 7]: 0.9993; CI [3, 8]: 0.4; Fa [3, 8]: 0.9999; Fa [3, 9]: 1
CCCCCCCCC[C@H](O)[C@@H](N)CO [C12] | 1.4 | 0.345 | 2.9 | 0.325 | 5.5 | 0.506 | >>1 | 0.632 | 1.0 | 0.376 | 1.0 | 0.618 | 1.5 | 1E−07 | 0.9 | 0.052 | 1.6 | 0.272 | 2.0 | 0.720 | CI [2, 7]: 1.3; Fa [2, 7]: 0.758; CI [2, 8]: 1.1; Fa [2, 8]: 0.925
CCCCCCCCCCCCCCCC[C@H](O)[C@@H](N)CO [C19, (2S,3S)-2-amino-1,3-nonadecanediol] | 1.0 | 0.094 | 1.6 | 0.109 | 1.6 | 0.173 | 1.1 | 0.272 | 1.9 | 0.299 | 1.6 | 0.582 | 1.2 | 0.078 | 1.2 | 0.195 | 1.1 | 0.503 | 0.7 | 0.909 | CI [2, 7]: 0.6; Fa [2, 7]: 0.951; CI [2, 8]: 0.3; Fa [2, 8]: 0.989; CI [3, 6]: 0.4; Fa [3, 6]: 0.9960; CI [3, 7]: 0.1; Fa [3, 7]: 0.9993; CI [3, 8]: 0.1; Fa [3, 8]: 1; Fa [3, 9]: 1.0000

— patent publication US20110152267A1, “Compositions and Methods for Treating Hyperproliferative Disorders” (Texas Tech University System, priority 2009, published 2011)
